The results in this text go back to US8470738B2, “Pyridazinone compound and herbicide containing the same” (Sumitomo Chemical Company, Limited, priority 2007, dated 2013).

One test has as its system Lolium multiflorum. Briefly: Post-emergence treatment test in dry field. Type of test: in vivo. Conditions: treatment amount 500 g/ha; foliar spray at first to second leaf stage; twenty days after treatment; 0 = no effect, 10 = complete death. On the procedure:
A plastic cup with a diameter of 8 cm and a depth of 6.5 cm was filled with commercially available soil. Seeds of Lolium multiflorum were sowed in the cup, covered with soil about 0.5 cm thick and then grown in a greenhouse. When the plants were grown in the first to second leaf stage, a diluted liquid formulation containing a prescribed amount of the compound I-a-2 was sprayed onto the whole plants uniformly. The diluted liquid formulation was prepared by dissolving a prescribed amount of the compound I-a-2 in a 2% solution of Tween 20 (polyoxyethylene sorbitan fatty acid ester, MP Biomedicals, Inc.) in dimethylformamide and then diluting the solution with deionized water. After the treatment, the plants were grown in a greenhouse. Twenty days after treatment, the controlling effect of the compound on Lolium multiflorum was visually evaluated. The effect was rated in 11 levels, from 0 to 10 (0 represents “no effect”; 10 represents “complete death”; and a state of the plant therebetween is rated in levels of 1 to 9).
The other compounds of the present invention, and Compound A described in J. Heterocycl. Chem., vol. 42, pp. 427-435 (2005) as a comparative example were similarly tested.

For another test, the system named is Apera spica-venti. Briefly: Pre-emergence treatment test in dry field. Format: in vivo. Conditions: treatment amount 500 g/ha; sprayed onto soil surface after sowing; three weeks after treatment; 0 = no effect, 10 = complete death. As to the method: A plastic container (32 cm×22 cm×8 cm in height) was filled with soil sterilized by steam. Seeds of Apera spica-venti were sowed in the container and covered with soil about 0.5 cm thick. Then, a diluted liquid formulation containing a prescribed amount of the compound I-a-1 was sprayed onto the soil surface uniformly. The diluted liquid formulation was prepared by the method similar to that in Test example 1. After the treatment, the plants were grown in a greenhouse. Three weeks after treatment, the controlling effect of the compound on Apera spica-venti was visually evaluated. The effect was rated in 11 levels, from 0 to 10 similarly to Test example 1.
The other compounds of the present invention and Compound A as a comparative example were similarly tested.

With `Cc1ccccc1-c1c(O)cnn(C)c1=O` [Compound A], the “controlling effect on Lolium multiflorum (visually evaluated, rated 0 to 10)” value in the test on Lolium multiflorum is 1. In addition, the “controlling effect on Apera spica-venti (visually evaluated, rated 0 to 10)” value with Apera spica-venti is given as 1.
